According to article PMC10743905, “Design, Synthesis, and In Vitro and In Vivo Bioactivity Studies of Hydrazide–Hydrazones of 2,4-Dihydroxybenzoic Acid” (International Journal of Molecular Sciences, 2023):
≈ marks a conversion by molar mass, not a printed value.

Legend:
[1] = system: Bacillus cereus ATCC 10876; assay: Broth microdilution MIC/MBC; assay type: cell-based; settings: for MIC: ATCC10876, read-out: MIC; for MBC: ATCC10876
Source text: (§1) In vitro antimicrobial activity assays - Methodology
(§2) The examined compounds 1 - 24 were screened in vitro for antibacterial and antifungal activities using the broth microdilution method according to procedure reported earlier by our research group and European Committee on Antimicrobial Susceptibility Testing (EUCAST) and Clinical and Laboratory Standards Institute (CLSI) guidelines against a panel of reference and clinical or saprophytic strains of microorganisms, in-cluding Gram-positive bacteria, Staphylococcus aureus ATCC 43300 (Methicillin Resistant S. aureus – MRSA), Staphylococcus aureus ATCC 29213 (Methicillin Susceptible S. aureus – MSSA), Staphylococcus epidermidis ATCC 12228, Enterococcus faecalis ATCC 29212, Micro-coccus luteus ATCC 10240, Bacillus subtilis ATCC 6633 and Bacillus cereus ATCC 10876), Gram-negative bacteria (Bordetella bronchiseptica ATCC 4617, Escherichia coli ATCC 25922, Klebsiella pneumoniae ATCC 13883, Proteus mirabilis ATCC 12453, Salmonella typhimurium ATCC 14028 and Pseudomonas aeruginosa ATCC 9027) and fungi belonging to yeasts (Can-dida albicans ATCC 10231, Candida albicans ATCC 2091, Candida parapsilosis ATCC 22019, Candida glabrata ATCC 90030 and Candida krusei ATCC 14243). The microorganisms be-longing to ATCC came from American Type Culture Collection, routinely used for the evaluation of antimicrobials. All the used microbial cultures were first subcultured on nu-trient agar or Sabouraud agar at 35°C for 18-24 h or 30°C for 24-48 h for bacteria and fungi, […]
(§3) The surface of Mueller-Hinton agar (for bacteria) and RPMI 1640 with MOPS (for fungi) were inoculated with the suspensions of bacterial or fungal species. Microbial suspensions were prepared in sterile saline with an optical density of McFarland standard scale 0.5.
(§4) Samples containing examined compounds were dissolved in dimethyl sulfoxide (DMSO).
(§5) Furthermore, bacterial and fungal suspensions were put onto Petri dishes with solid me-dia containing 2 mg/mL of the tested compounds followed incubation at 37°C for 24h and 30°C for 48h for bacteria and fungi, respectively. The inhibition of microbial growth was judged by comparison with a control culture prepared without any sample tested. Ciprof-loxacin, vancomycin, nitrofurantoin, cefuroxime, ampicillin or nystatin (Sigma) were used as a reference antibacterial or antifungal compounds, respectively.
(§6) Subsequently, the MIC (Minimal Inhibitory Concentration) of the compounds was ex-amined by the microdilution broth method, using their two-fold dilutions in Mueller- […]
(§7) Hinton broth or (for bacteria) and RPMI 1640 broth with MOPS (for fungi) prepared in 96-well polystyrene plates. Final concentrations of the compounds ranged from 1000 to 0.488 µg/ml. Microbial suspensions were prepared in 0.85% NaCl with an optical density of 0.5 McFarland standard. Next each bacterial or fungal suspension was added per each well containing broth and various concentrations of the examined compounds. After incuba-

[2] = system: Bordetella bronchiseptica ATCC 4617; assay: Broth microdilution MIC/MBC; assay type: cell-based; settings: ATCC4617
Source text: as §1, §2, §3, §4, §5, §6, §7

[3] = system: Escherichia coli ATCC 25922; assay: Broth microdilution MIC/MBC; assay type: cell-based; settings: ATCC25922
Source text: as §1, §2, §3, §4, §5, §6, §7

[4] = system: Klebsiella pneumoniae ATCC 13883; assay: Broth microdilution MIC/MBC; assay type: cell-based; settings: ATCC13883
Source text: as §1, §2, §3, §4, §5, §6, §7

[5] = system: Enterococcus faecalis ATCC 29212; assay: Broth microdilution MIC/MBC; assay type: cell-based; settings: for MIC: ATCC29212, read-out: MIC
Source text: as §1, §2, §3, §4, §5, §6, §7

[6] = system: Staphylococcus aureus ATCC 29213; assay: Broth microdilution MIC/MBC; assay type: cell-based; settings: for MIC / MBC: ATCC29213
Source text: as §1
as §2, with “antimicrobials.” for “antimicrobials. All the used microbial cultures were first subcultured on nu-trient agar or Sabouraud agar at 35°C for 18-24 h or 30°C for 24-48 h for bacteria and fungi,”
(§8) Samples containing examined compounds were dissolved in dimethyl sulfoxide (DMSO). […]
as §6, §7

[7] = system: Salmonella typhimurium ATCC 14028; assay: Broth microdilution MIC/MBC; assay type: cell-based; settings: Salmonella enterica
Source text: as §1
as §2, with “antimicrobials.” for “antimicrobials. All the used microbial cultures were first subcultured on nu-trient agar or Sabouraud agar at 35°C for 18-24 h or 30°C for 24-48 h for bacteria and fungi,”
as §8, §6, §7

[8] = system: Staphylococcus aureus ATCC 43300; assay: Broth microdilution MIC/MBC; assay type: cell-based; settings: Staphylococcus aureus ATCC 43300 (MRSA)
Source text: as §1
as §2, with “antimicrobials.” for “antimicrobials. All the used microbial cultures were first subcultured on nu-trient agar or Sabouraud agar at 35°C for 18-24 h or 30°C for 24-48 h for bacteria and fungi,”
as §8, §6, §7

[9] = system: Pseudomonas aeruginosa ATCC 9027; assay: Broth microdilution MIC/MBC; assay type: cell-based; settings: ATCC9027
Source text: as §1
as §2, with “antimicrobials.” for “antimicrobials. All the used microbial cultures were first subcultured on nu-trient agar or Sabouraud agar at 35°C for 18-24 h or 30°C for 24-48 h for bacteria and fungi,”
as §8, §6, §7

[10] = system: Staphylococcus epidermidis ATCC 12228; assay: Broth microdilution MIC/MBC; assay type: cell-based; settings: for MIC: ATCC12228, read-out: MIC; for MBC: ATCC12228
Source text: as §1
as §2, with “antimicrobials.” for “antimicrobials. All the used microbial cultures were first subcultured on nu-trient agar or Sabouraud agar at 35°C for 18-24 h or 30°C for 24-48 h for bacteria and fungi,”
as §8, §6, §7

[11] = system: Proteus mirabilis ATCC 12453; assay: Broth microdilution MIC/MBC; assay type: cell-based; settings: ATCC12453
Source text: as §1
as §2, with “antimicrobials.” for “antimicrobials. All the used microbial cultures were first subcultured on nu-trient agar or Sabouraud agar at 35°C for 18-24 h or 30°C for 24-48 h for bacteria and fungi,”
as §8, §6, §7

[12] = system: Micrococcus luteus ATCC 10240; assay: Broth microdilution MIC/MBC; assay type: cell-based; settings: for MBC: ATCC10240; for MIC: ATCC10240, read-out: MIC
Source text: as §1
as §2, with “antimicrobials.” for “antimicrobials. All the used microbial cultures were first subcultured on nu-trient agar or Sabouraud agar at 35°C for 18-24 h or 30°C for 24-48 h for bacteria and fungi,”
as §8, §6, §7

[13] = system: Candida albicans ATCC 10231; assay: Broth microdilution MIC/MFC; assay type: cell-based; settings: for MIC: ATCC10231, read-out: MIC; for MFC: ATCC10231, read-out: MFC
Source text: as §1, §2, §3, §4, §5, §6, §7

[14] = system: Candida albicans ATCC 2091; assay: Broth microdilution MIC/MFC; assay type: cell-based; settings: for MIC: ATCC2091, read-out: MIC; for MFC: ATCC2091, read-out: MFC
Source text: as §1, §2, §3, §4, §5, §6, §7

[15] = system: Candida glabrata ATCC 90030; assay: Broth microdilution MIC/MFC; assay type: cell-based; settings: Nakaseomyces glabratus, ATCC90030, read-out: MIC
Source text: as §1, §2, §3, §4, §5, §6, §7

[16] = system: Candida parapsilosis ATCC 22019; assay: Broth microdilution MIC/MFC; assay type: cell-based; settings: for MIC: ATCC22019, read-out: MIC
Source text: as §1, §2, §3, §4, §5, §6, §7

[17] = system: Candida krusei ATCC 14243; assay: Broth microdilution MIC/MFC; assay type: cell-based; settings: Pichia kudriavzevii, ATCC14243, read-out: MIC
Source text: as §1, §2, §3, §4, §5, §6, §7

[18] = system: Bacillus subtilis ATCC 6633; assay: Broth microdilution MIC/MBC; assay type: cell-based; settings: for MIC: ATCC6633, read-out: MIC; for MBC: ATCC6633
Source text: Detailed procedures are presented in the Supplementary Materials. […]
as §1, §2, §3, §4, §5, §6, §7

Structure (SMILES)	MIC [1] [µg/mL]	MIC [2] [µg/mL]	MIC [3] [µg/mL]	MIC [4] [µg/mL]	MIC [5] [µg/mL]	MIC [6] [µg/mL]	MIC [7] [µg/mL]	MIC [8] [µg/mL]	MIC [9] [µg/mL]	MIC [10] [µg/mL]	MIC [11] [µg/mL]	MBC/MIC [12]	MBC [12] [µg/mL]	MIC [12] [µg/mL]	MIC [13] [µg/mL]	MIC [14] [µg/mL]	MIC [15] [µg/mL]	MIC ([16]; Lodderomyces parapsilosis) [µg/mL]	MIC [17] [µg/mL]	melting point [°C]	other results
Cc1ccc(/C=N/NC(=O)c2ccc(O)cc2O)cc1 [Compound 3, 2,4-dihydroxy-N-[(4-methylphenyl)methylidene]benzohydrazide]	> 1000	> 1000	> 1000	> 1000	> 1000	> 1000	> 1000	> 1000	> 1000	> 1000	> 1000	> 2	> 1000	500 (≈ 1.85 mM)	> 1000	> 1000	> 1000	> 1000	> 1000	248	MIC [18]: > 1000 µg/mL
CCOc1ccc(/C=N/NC(=O)c2ccc(O)cc2O)cc1 [Compound 5, N-[(4-ethoxyphenyl)methylidene]-2,4-dihydroxybenzohydrazide]	500 (≈ 1.66 mM)	> 1000	> 1000	> 1000	1000 (≈ 3.33 mM)	1000 (≈ 3.33 mM)	> 1000	> 1000	> 1000	> 1000	> 1000	> 2	> 1000	500 (≈ 1.66 mM)	1000 (≈ 3.33 mM)	500 (≈ 1.66 mM)	> 1000	> 1000	> 1000	248	MBC/MIC [1]: > 2; MBC [1]: > 1000 µg/mL; MBC/MIC [5]: > 1; MBC ([5]; ATCC29212, read-out: MBC): > 1000 µg/mL; MBC/MIC [6]: > 1; MBC [6]: > 1000 µg/mL; MFC/MIC [13]: > 1; MFC [13]: > 1000 µg/mL; MFC/MIC [14]: > 2; MFC [14]: > 1000 µg/mL; MBC/MIC [18]: > 2; MBC [18]: > 1000 µg/mL; MIC [18]: 500 µg/mL (≈ 1.66 mM)
CCCOc1ccc(/C=N/NC(=O)c2ccc(O)cc2O)cc1 [Compound 6, 2,4-dihydroxy-N-[(4-propoxyphenyl)methylidene]benzohydrazide]	1000 (≈ 3.18 mM)	> 1000	> 1000	> 1000	> 1000	1000 (≈ 3.18 mM)	> 1000	1000 (≈ 3.18 mM)	> 1000	1000 (≈ 3.18 mM)	> 1000	> 1	> 1000	1000 (≈ 3.18 mM)	1000 (≈ 3.18 mM)	500 (≈ 1.59 mM)	> 1000	1000 (≈ 3.18 mM)	> 1000	251	MBC/MIC [1]: > 1; MBC [1]: > 1000 µg/mL; MBC/MIC [6]: > 1; MBC [6]: > 1000 µg/mL; MBC [8]: > 1000 µg/mL; MBC/MIC [8]: > 1; MBC/MIC [10]: > 1; MBC [10]: > 1000 µg/mL; MFC/MIC [13]: > 1; MFC [13]: > 1000 µg/mL; MFC/MIC [14]: > 2; MFC [14]: > 1000 µg/mL; MFC/MIC [16]: > 1; MFC ([16]; Lodderomyces parapsilosis, ATCC22019, read-out: MFC): > 1000 µg/mL; MBC/MIC [18]: > 1; MBC [18]: > 1000 µg/mL; MIC [18]: 1000 µg/mL (≈ 3.18 mM)
CCCCOc1ccc(/C=N/NC(=O)c2ccc(O)cc2O)cc1 [Compound 7, N-[(4-butoxyphenyl)methylidene]-2,4-dihydroxybenzohydrazide]	1000 (≈ 3.05 mM)	> 1000	> 1000	> 1000	> 1000	1000 (≈ 3.05 mM)	> 1000	> 1000	> 1000	500 (≈ 1.52 mM)	> 1000	> 1	> 1000	1000 (≈ 3.05 mM)	1000 (≈ 3.05 mM)	500 (≈ 1.52 mM)	> 1000	> 1000	> 1000	246	MBC/MIC [1]: > 1; MBC [1]: > 1000 µg/mL; MBC/MIC [6]: > 1; MBC [6]: > 1000 µg/mL; MBC/MIC [10]: 2; MBC [10]: 1000 µg/mL (≈ 3.05 mM); MFC/MIC [13]: > 1; MFC [13]: > 1000 µg/mL; MFC/MIC [14]: > 2; MFC [14]: > 1000 µg/mL; MIC [18]: > 1000 µg/mL
